Assay results: patent US6583154B1, “Compounds and methods which modulate feeding behavior and related diseases” (Amgen Inc., priority 1998, dated 2003)
Counter-ions that a name gives are not always drawn.

| Compound | melting point |
| --- | --- |
| Nc1nc(N2CCCCC2)c2[nH]c(-c3ccccc3)cc2n1 (as salt: hydrochloride) (hydrate or solvate) [Example 66e, 6-Phenyl-4-piperidylpyrrolo[3,2-d]pyrimidine-2-yl Amine Hydrochloride Hydrate] | > 300 °C (dec.) |
| Cc1nc(N2CCCCC2)c2[nH]c(-c3cccc(N)c3)cc2n1 (as salt: hydrochloride) (hydrate or solvate) [Example 187, 3-(2-Methyl-4-piperidylpyrrolo[4,5-d]pyrimidin-6-yl)phenylamine Hydrochloride Monohydrate] | > 275 °C |
| Cc1nc(N2CCCC2)c2[nH]c(-c3ccccc3)cc2n1 (as salt: hydrochloride) (hydrate or solvate) [Example 193, 2-Methyl-6-phenyl-4-pyrrolidinylpyrrolo[3,2-d]pyrimidine Hydrochloride Monohydrate] | > 296 °C |
| Cc1nc(NC[C@H]2CC[C@H](CNS(=O)(=O)c3cccc4ccccc34)CC2)c2[nH]c(-c3ccccc3)cc2n1 (as salt: hydrochloride) (hydrate or solvate) [Example 194, trans-[(4-{[(2-Methyl-6-phenylpyrrolo[2,3-e]pyrimidin-4-yl)amino]methyl}cyclohexyl)methyl](naphthylsulfonyl)amine Hydrochloride Hydrate] | 165 to 170 °C |
| CCCc1nc(N2CCCCC2)c2[nH]c(-c3ccccc3)cc2n1 (as salt: hydrochloride) (hydrate or solvate) [Example 196c, 6-Phenyl-4-piperidyl-2-propylpyrrolo[3,2-d]pyrimidine Hydrochloride Monohydrate] | 258 to 262.5 °C |
| Cc1nc(N2CC=CC2)c2[nH]c(-c3cccc(C(F)(F)F)c3)cc2n1 (as salt: hydrochloride) (hydrate or solvate) [Example 197d, 2-Methyl-4-(3-pyrrolinyl)-6-[3-(trifluoromethyl)phenyl]pyrrolo[3,2-d]pyrimidine Hydrochloride Monohydrate] | > 270 °C |
| Cc1nc(N2CC=CC2)c2[nH]c(-c3cccc(Cl)c3)cc2n1 (as salt: hydrochloride) (hydrate or solvate) [Example 198, 6-(3-Chlorophenyl)-2-methyl-4-(3-pyrrolinyl)pyrrolo[3,2-d]pyrimidine Hydrochloride Hydrate] | 287.5 to 293 °C |
| CCc1nc(N2CCc3ccccc3C2)c2[nH]c(-c3ccccc3)cc2n1 (as salt: hydrochloride) (hydrate or solvate) [Example 202, 2-Ethyl-6-phenyl-4-(2-1,2,3,4-tetrahydroisoquinolyl)pyrrolo[3,2-d]pyrimidine Hydrochloride Monohydrate] | 170 to 171.5 °C |
| CN(C)c1nc(N2CCCCC2)c2[nH]c(-c3ccccc3)cc2n1 (as salt: hydrochloride) (hydrate or solvate) [Example 203, Hydrochloride Hydrate] | > 300 °C |
| Fc1ccc(-c2cc3nc(C4CC4)nc(N4CCCCC4)c3[nH]2)cc1 (as salt: hydrochloride) (hydrate or solvate) [Example 209c, 2-Cyclopropyl-6-(4-fluorophenyl)-4-piperidylpyrrolo[3,2-d]pyrimidine Hydrochloride Hydrate] | > 280 °C |
| Cc1nc(N2CCc3ccccc32)c2[nH]c(-c3ccccc3)cc2n1 (as salt: hydrochloride) (hydrate or solvate) [Example 215, 4-Indolinyl-2-methyl-6-phenylpyrrolo[3,2-d]pyrimidine Hydrochloride Hydrate] | > 300 °C |
| Cc1nc(N2CC=CC2)c2oc(-c3ccccc3)cc2n1 (as salt: hydrochloride) (hydrate or solvate) [Example 216c, 2-Methyl-6-phenyl-4-(3-pyrrolinyl)furano[3,2-d]pyrimidine Hydrochloride Hydrate] | 279 to 280 °C |
| Cc1nc(N2CCCCC2)c2sc(-c3ccc(F)cc3)cc2n1 (as salt: hydrochloride) (hydrate or solvate) [Example 217, 6-(4-Fluorophenyl)-2-methyl-4-piperidylthiopheno[3,2-d]pyrimidine Hydrochloride Hydrate] | 285 to 287 °C |
| Cc1nc(-n2cccn2)c2[nH]c(-c3ccccc3)cc2n1 (as salt: hydrochloride) (hydrate or solvate) [Example 218, 2-Methyl-6-phenyl-4-pyrazolypyrrolo[3,2-d]pyrimidine Hydrochloride Hydrate] | 253 to 254 °C |
| Cc1nc(N2C(C)C=CC2C)c2[nH]c(-c3ccccc3)cc2n1 (stereo not shown) (as salt: hydrochloride) (hydrate or solvate) [Example 220, 4-(2,5-Dimethyl(3-pyrrolinyl)-2-methyl-6-phenylpyrrolo[3,2-d]pyrimidine Hydrochloride Hydrate] | 242 to 243 °C |
| Cc1nc(N2CCc3ccccc3C2)c2sc(-c3ccccc3)cc2n1 (as salt: hydrochloride) (hydrate or solvate) [Example 221b, 2-Methyl-6-phenyl-4-[2-1,2,3,4-tetrahydroisoquinolyl)thiopheno[3,2-d]pyrimidine Hydrochloride Hydrate] | 263 to 265 °C |
| Cc1nc(N2CCN(S(=O)(=O)c3ccccc3)CC2)c2[nH]c(-c3ccccc3)cc2n1 (as salt: hydrochloride) (hydrate or solvate) [Example 227, 1-(2-Methyl-6-phenylpyrrolo[2,3-e]pyrimidin-4-yl(phenylsulfonyl)piperazine Hydrochloride Monohydrate] | 242 to 243 °C |
| Cc1nc(N2CCCCC2)c2[nH]c(-c3ccccc3)cc2n1 (as salt: hydrochloride) [Example 35, 2-methyl-6-phenyl-4-(piperidinyl)pyrrolo[3,2-d]pyrimidine] | 293 to 294 °C |
| Cc1nc(N2CCCCC2CCO)c2[nH]c(-c3ccccc3)cc2n1 (stereo not shown) (as salt: hydrochloride) [Example 62, 2-Methyl-6-phenyl-4-(2-piperidineethanolyl)pyrrolo(3,2-d)pyrimidine Hydrochloride] | 273 to 273.5 °C |
| Cc1nc(N2CC=CCC2)c2[nH]c(-c3ccccc3)cc2n1 (as salt: hydrochloride) [Example 65, 2-Methyl-6-phenyl-4-(1,2,3,6-tetrahydropyridinyl)pyrrolo[3,2-d]pyrimidine Hydrochloride] | 278 to 279 °C |
| Cc1nc(N2CCOCC2)c2[nH]c(-c3ccc(F)c(F)c3)cc2n1 (as salt: hydrochloride) [Example 141, 4-[6-(3,4-Difluorophenyl)-2-methylpyrrolo[2,3-e]pyrimidin-4-yl]morpholine Hydrochloride] | > 280 °C |
| Cc1nc(N2[C@H](C)CCC[C@@H]2C)c2[nH]c(-c3ccccc3)cc2n1 (as salt: hydrochloride) [Example 185, 4-((6S, 2R)-2,6-Dimethyl)-2-methyl-6-phenylpyrrolo[3,2-d]pyrimidine Hydrochloride] | > 270 °C |

| Compound | melting point |
| --- | --- |
| c1ccc(-c2cc3nc(N4CCCCC4)nc(N4CCCCC4)c3[nH]2)cc1 (as salt: hydrochloride) [Example 208, 6-Phenyl-2,4-dipiperidylpyrrolo[3,2-d]pyrimidine Hydrochloride] | > 272 °C |
| Cc1nc(N2CCCCC2)c2[nH]c(-c3ccccc3)c(Br)c2n1 (as salt: hydrochloride) [Example 211, 7-Bromo-2-methyl-6-phenyl-4-piperidylpyrrolo[3,2-d]pyrimidine Hydrochloride] | 239 to 240 °C |
| Cc1nc(N2CCCCC2)c2[nH]c(-c3ccc(-c4ccccc4)cc3)cc2n1.Cl (hydrate or solvate) | > 280 °C |
| Cc1nc(N2CCCCC2)c2[nH]c(-c3ccc(Cl)c(Cl)c3Cl)cc2n1.Cl (hydrate or solvate) | 264 to 266 °C |
| Cc1nc(N2CCCCC2)c2[nH]c(-c3ccccc3C(F)(F)F)cc2n1.Cl (hydrate or solvate) | > 280 °C |
| Cc1nc(N2CCCCC2)c2[nH]c(-c3ccc4c(c3)CCCC4)cc2n1.Cl (hydrate or solvate) | 175 to 177 °C |
| Cc1nc(N2CCCCC2)c2[nH]c(-c3ccc(Cl)c(Cl)c3)c(C)c2n1.Cl (hydrate or solvate) | > 280 °C |
| COc1cccc(-c2cc3nc(C)nc(N4CCCCC4)c3[nH]2)c1.Cl (hydrate or solvate) | 241 to 243 °C |
| Cc1nc(N2CCCCC2)c2[nH]c(-c3cccc(O)c3)cc2n1.Cl (hydrate or solvate) | > 280 °C |
| Cc1nc(N2CCCCC2C)c2[nH]c(-c3ccc(F)cc3)cc2n1.Cl (stereo not shown) (hydrate or solvate) | 274 to 276 °C |
| Cc1nc(N2CCCCC2)c2[nH]c(-c3ccc(Cl)cc3)c(N3CCCC3)c2n1.Cl (hydrate or solvate) | > 280 °C |
| Cc1nc(N2CCCCC2)c2[nH]c(CS(=O)(=O)c3ccc(Cl)cc3)cc2n1.Cl (hydrate or solvate) | 199 to 201 °C |
| Cc1nc(N2CCCCC2)c2[nH]c(-c3cccnc3)cc2n1.Cl (hydrate or solvate) | > 280 °C |
| Cc1ccc2sc(-c3cc4nc(C)nc(N5CCCCC5)c4[nH]3)c(C)c2c1.Cl (hydrate or solvate) | > 280 °C |
| Cc1nc(N2CCCCC2)c2[nH]c(-c3ccc4c(c3)OCO4)c(C)c2n1.Cl (hydrate or solvate) | 268 to 269 °C |
| Cc1nc2c3c(cc(-c4ccccc4)n3CC3CCCCN23)n1.Cl (stereo not shown) (hydrate or solvate) | > 280 °C |
| Cc1nc(N2CCN(S(=O)(=O)c3cccc4ccccc34)CC2)c2[nH]c(-c3ccccc3)cc2n1.Cl (hydrate or solvate) | 195 °C (dec.) |
| Cl.c1cnc(-c2cc3ncnc(N4CCCCC4)c3[nH]2)cn1 (hydrate or solvate) | > 280 °C |
| Cl.c1ccc(-c2[nH]c3c(N4CCCCC4)ncnc3c2-c2ccccc2)cc1 (hydrate or solvate) | 266 to 268.5 °C |
| Cl.FC(F)(F)c1nc(N2CCCCC2)c2[nH]c(-c3ccccc3)cc2n1 (hydrate or solvate) | 235.1 to 237.5 °C (dec.) |
| Cc1nc(N2CCCCC2)c2[nH]c(-c3cc(C)sc3C)cc2n1.Cl (hydrate or solvate) | 240 to 241.5 °C |
